Consider 16 compounds from ChEMBL document CHEMBL4392842, “Structural hybridization of pyrrolidine-based T-type calcium channel inhibitors and exploration of their analgesic effects in a neuropathic pain model” (Bioorg Med Chem Lett, 2019).

Series [1] has as its target T1, Voltage-dependent T-type calcium channel subunit alpha-1G (Homo sapiens, UniProt O43497). Kind of series: Inhibition of recombinant human Cav3.1 expressed in HEK293 cells assessed as reduction in KCl-induced increase in intracellular calcium level at 10 uM by fura-2 AM indicator based FDSS assay relative to control. In kind it is cell-based.
Series [2] concerns the target T2, Voltage-dependent T-type calcium channel subunit alpha-1H (Homo sapiens, UniProt O95180). Kind of series: Inhibition of Cav3.2 (unknown origin) assessed as reduction in KCl-induced increase in intracellular calcium level at 10 uM by fura-2 AM indicator based FDSS assay relative to control. In kind it is cell-based. In general terms: A change in cytosolic calcium serves as a functional read-out for many receptors and channels.

In series [3] the target is Voltage-gated inwardly rectifying potassium channel KCNH2 (Homo sapiens, UniProt Q12809). Put plainly: Inhibition of human ERG by whole-cell patch clamp method.
A short description of series [4]: Stability in human liver microsomes assessed as parent compound remaining measured after 30 mins. Type of series: ADME, Microsome. Conditions: read-out: Stability. A general note: Liver microsomes are vesicles of endoplasmic reticulum, rich in cytochrome P450 enzymes.
Series [5] has as its system Rattus norvegicus. Kind of series: Analgesic activity in Sprague-Dawley rat L5/L6 spinal nerve ligation-induced neuropathic pain model assessed as decrease in paw withdrawal threshold to non-noxious cold stimuli at 100 mg/kg, po measured after 5 hrs. In kind it is functional, organism-based.
Series [6] has as its system Rattus norvegicus. Put plainly: Analgesic activity in Sprague-Dawley rat L5/L6 spinal nerve ligation-induced neuropathic pain model assessed as reversal of mechanical allodynia by measuring increase in paw withdrawal threshold to non-noxious mechanical stimuli at 100 mg/kg, po measured after 3 hrs relative to control. Type of series: functional.
The next series has as its target CYP2C9 (Homo sapiens, UniProt P11712). Put plainly: Inhibition of CYP2C9 (unknown origin) assessed as residual activity at 10 uM relative to control. In kind it is ADME. The following applies: read-out: Activity.
For another series, the target named is CYP2C19 (Homo sapiens, UniProt P33261). Kind of series: Inhibition of CYP2C19 (unknown origin) assessed as residual activity at 10 uM relative to control. Type of series: ADME. Conditions: read-out: Activity.
Series [7] concerns the target T1, Voltage-dependent T-type calcium channel subunit alpha-1G. Kind of series: Inhibition of recombinant human Cav3.1 expressed in HEK293 cells assessed as suppression of KCl-evoked current by whole-cell patch clamp method. Type of series: cell-based.
For series [8], the system named is Rattus norvegicus. Kind of series: Analgesic activity in Sprague-Dawley rat L5/L6 spinal nerve ligation-induced neuropathic pain model assessed as decrease in paw withdrawal threshold to non-noxious cold stimuli at 100 mg/kg, po measured after 1 hr. Type of series: functional, organism-based.
Another series concerns the target CYP2D6 (Homo sapiens, UniProt P10635). Put plainly: Inhibition of CYP2D6 (unknown origin) assessed as residual activity at 10 uM relative to control. The following applies: read-out: Activity. In kind it is ADME.
Series [9] deals with T2, Voltage-dependent T-type calcium channel subunit alpha-1H. Kind of series: Inhibition of Cav3.2 (unknown origin) assessed as suppression of KCl-evoked current by whole-cell patch clamp method.
The next series deals with CYP3A4 (Homo sapiens, UniProt P08684). Kind of series: Inhibition of CYP3A4 (unknown origin) assessed as residual activity at 10 uM relative to control. In kind it is ADME. Conditions: read-out: Activity.
Another series has as its target T3, CYP1A2 (Homo sapiens, UniProt P05177).
T3 sequence (P05177 whole entry): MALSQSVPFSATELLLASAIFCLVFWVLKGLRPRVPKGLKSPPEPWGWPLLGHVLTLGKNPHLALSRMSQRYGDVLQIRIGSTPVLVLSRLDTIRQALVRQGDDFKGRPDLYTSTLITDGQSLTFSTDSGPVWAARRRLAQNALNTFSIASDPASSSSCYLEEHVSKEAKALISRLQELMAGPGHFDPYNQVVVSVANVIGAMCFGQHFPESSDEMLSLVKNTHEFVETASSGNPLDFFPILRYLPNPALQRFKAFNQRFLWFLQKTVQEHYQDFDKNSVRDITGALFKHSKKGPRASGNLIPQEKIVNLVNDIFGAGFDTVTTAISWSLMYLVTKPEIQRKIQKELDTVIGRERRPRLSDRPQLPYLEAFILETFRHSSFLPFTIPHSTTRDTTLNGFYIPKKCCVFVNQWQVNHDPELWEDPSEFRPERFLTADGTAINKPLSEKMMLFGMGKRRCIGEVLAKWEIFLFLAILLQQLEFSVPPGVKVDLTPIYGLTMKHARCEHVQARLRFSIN
Kind of series: Inhibition of CYP1A2 (unknown origin) assessed as residual activity at 10 uM relative to control. In kind it is ADME. Conditions: read-out: Activity.

Broadly, the inhibition is the drop in the measured response relative to a control, in per cent. A word on the IC50: it is the concentration that gives 50% inhibition.

Activity calls are given as the source filed them.

T2 sequence (O95180 whole entry): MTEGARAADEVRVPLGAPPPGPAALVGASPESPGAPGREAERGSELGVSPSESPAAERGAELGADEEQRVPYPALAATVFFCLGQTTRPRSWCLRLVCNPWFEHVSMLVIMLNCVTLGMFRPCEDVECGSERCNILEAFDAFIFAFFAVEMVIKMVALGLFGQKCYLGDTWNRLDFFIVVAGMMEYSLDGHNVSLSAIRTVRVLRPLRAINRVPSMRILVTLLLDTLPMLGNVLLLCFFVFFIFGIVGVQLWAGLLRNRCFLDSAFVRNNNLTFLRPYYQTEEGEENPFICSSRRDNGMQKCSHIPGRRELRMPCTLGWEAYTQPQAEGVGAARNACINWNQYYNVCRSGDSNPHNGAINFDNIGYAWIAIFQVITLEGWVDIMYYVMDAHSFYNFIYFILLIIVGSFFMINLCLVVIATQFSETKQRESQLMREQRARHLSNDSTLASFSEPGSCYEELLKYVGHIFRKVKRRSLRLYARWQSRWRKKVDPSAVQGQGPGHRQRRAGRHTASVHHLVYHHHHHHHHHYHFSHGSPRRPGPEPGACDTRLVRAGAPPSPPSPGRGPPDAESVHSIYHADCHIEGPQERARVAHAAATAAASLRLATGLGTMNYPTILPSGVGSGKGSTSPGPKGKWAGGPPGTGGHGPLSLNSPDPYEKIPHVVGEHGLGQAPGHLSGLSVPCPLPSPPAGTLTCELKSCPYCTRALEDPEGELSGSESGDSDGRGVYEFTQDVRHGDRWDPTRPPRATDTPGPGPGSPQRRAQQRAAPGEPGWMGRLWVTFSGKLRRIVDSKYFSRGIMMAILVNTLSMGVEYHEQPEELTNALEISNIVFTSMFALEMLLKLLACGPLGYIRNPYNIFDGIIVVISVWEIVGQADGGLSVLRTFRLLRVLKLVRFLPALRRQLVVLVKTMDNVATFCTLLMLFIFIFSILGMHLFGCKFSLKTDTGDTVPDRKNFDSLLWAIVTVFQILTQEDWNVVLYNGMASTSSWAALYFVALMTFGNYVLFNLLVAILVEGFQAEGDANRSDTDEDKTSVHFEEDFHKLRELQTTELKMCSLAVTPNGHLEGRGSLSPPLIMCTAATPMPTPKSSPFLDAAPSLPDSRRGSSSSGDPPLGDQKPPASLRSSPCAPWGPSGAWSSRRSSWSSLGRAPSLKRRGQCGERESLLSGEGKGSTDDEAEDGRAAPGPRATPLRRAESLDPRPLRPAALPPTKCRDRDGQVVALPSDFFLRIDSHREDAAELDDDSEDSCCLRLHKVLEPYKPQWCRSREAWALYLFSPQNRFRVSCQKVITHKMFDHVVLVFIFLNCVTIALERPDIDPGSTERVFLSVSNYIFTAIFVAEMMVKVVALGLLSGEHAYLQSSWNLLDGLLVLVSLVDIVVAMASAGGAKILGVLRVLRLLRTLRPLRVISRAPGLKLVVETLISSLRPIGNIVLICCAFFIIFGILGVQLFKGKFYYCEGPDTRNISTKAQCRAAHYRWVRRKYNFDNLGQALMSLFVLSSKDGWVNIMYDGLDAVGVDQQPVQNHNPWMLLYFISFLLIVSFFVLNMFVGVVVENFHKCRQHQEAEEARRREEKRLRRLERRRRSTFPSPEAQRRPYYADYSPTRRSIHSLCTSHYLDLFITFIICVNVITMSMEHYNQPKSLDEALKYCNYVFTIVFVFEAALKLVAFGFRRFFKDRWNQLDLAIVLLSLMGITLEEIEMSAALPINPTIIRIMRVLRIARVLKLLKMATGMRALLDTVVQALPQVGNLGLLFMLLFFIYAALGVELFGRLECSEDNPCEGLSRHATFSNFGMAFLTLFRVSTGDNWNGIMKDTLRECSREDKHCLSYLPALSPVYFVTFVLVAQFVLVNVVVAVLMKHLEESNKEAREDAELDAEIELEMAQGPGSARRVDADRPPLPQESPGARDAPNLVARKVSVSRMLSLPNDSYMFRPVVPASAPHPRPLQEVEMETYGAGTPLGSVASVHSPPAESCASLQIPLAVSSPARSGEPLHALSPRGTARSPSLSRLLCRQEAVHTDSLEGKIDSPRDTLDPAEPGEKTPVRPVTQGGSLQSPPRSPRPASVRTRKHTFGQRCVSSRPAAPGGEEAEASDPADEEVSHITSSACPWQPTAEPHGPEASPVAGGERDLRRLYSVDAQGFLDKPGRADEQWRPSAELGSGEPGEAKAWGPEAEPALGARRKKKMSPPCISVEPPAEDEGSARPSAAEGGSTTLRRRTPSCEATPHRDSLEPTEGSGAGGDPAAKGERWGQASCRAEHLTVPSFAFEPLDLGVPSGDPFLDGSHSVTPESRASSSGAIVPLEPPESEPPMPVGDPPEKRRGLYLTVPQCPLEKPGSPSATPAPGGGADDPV
Voltage-gated inwardly rectifying potassium channel KCNH2, sequence (Q12809 whole entry): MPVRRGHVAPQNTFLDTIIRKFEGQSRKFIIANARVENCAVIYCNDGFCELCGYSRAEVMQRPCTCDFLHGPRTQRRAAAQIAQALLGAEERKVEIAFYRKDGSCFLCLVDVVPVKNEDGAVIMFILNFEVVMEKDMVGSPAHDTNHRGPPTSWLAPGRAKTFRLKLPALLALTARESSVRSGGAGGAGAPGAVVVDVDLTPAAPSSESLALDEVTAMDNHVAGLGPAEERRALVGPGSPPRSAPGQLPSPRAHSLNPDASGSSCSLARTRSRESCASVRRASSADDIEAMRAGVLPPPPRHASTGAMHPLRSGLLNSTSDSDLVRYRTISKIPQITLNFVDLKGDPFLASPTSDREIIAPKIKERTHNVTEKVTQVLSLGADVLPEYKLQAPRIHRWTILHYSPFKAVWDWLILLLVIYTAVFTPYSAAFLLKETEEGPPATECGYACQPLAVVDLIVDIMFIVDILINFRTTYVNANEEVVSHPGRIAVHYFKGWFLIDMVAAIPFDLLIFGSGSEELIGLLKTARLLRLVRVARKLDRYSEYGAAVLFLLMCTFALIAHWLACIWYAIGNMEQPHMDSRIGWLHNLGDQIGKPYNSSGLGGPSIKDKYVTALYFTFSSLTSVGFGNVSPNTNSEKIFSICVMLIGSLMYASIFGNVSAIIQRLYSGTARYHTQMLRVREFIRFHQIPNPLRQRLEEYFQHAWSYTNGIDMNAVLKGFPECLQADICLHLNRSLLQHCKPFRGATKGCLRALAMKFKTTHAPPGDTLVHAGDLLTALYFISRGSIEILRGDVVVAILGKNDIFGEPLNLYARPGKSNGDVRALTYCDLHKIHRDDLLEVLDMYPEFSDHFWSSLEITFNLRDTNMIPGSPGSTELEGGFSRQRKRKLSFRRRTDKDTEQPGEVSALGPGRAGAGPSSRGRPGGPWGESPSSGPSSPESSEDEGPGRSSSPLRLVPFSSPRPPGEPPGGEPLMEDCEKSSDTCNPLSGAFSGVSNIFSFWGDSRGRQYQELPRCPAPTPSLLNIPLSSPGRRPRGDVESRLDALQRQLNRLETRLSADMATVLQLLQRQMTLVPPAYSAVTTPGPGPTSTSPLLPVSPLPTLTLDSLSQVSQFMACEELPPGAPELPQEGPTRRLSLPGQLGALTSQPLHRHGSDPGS
CYP2C19, sequence (P33261 whole entry): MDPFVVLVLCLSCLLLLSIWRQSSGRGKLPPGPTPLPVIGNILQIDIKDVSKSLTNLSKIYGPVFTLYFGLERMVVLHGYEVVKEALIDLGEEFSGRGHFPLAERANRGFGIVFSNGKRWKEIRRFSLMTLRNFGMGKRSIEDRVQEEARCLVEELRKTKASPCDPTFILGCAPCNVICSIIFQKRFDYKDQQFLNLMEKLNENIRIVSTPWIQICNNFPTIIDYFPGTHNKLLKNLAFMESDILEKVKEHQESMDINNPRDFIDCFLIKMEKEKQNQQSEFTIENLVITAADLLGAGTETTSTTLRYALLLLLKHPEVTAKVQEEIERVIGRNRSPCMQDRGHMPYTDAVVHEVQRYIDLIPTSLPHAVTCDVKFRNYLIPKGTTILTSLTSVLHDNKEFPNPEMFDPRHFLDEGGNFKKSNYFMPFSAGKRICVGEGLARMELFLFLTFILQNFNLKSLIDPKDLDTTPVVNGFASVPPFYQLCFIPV
CYP2D6, sequence (P10635 whole entry): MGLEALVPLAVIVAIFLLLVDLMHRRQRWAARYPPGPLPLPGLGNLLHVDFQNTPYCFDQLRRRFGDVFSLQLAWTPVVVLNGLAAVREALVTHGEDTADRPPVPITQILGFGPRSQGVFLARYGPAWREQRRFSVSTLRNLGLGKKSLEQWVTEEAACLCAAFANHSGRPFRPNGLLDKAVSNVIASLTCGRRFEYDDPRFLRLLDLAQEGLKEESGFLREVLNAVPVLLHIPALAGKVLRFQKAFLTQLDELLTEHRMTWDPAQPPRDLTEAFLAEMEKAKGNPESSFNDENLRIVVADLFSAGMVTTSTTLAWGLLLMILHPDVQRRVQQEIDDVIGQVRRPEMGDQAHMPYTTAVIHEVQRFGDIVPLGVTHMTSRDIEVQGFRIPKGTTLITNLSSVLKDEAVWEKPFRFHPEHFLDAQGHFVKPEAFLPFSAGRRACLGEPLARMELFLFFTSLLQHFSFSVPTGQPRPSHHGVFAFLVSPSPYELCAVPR
CYP2C9, sequence (P11712 whole entry): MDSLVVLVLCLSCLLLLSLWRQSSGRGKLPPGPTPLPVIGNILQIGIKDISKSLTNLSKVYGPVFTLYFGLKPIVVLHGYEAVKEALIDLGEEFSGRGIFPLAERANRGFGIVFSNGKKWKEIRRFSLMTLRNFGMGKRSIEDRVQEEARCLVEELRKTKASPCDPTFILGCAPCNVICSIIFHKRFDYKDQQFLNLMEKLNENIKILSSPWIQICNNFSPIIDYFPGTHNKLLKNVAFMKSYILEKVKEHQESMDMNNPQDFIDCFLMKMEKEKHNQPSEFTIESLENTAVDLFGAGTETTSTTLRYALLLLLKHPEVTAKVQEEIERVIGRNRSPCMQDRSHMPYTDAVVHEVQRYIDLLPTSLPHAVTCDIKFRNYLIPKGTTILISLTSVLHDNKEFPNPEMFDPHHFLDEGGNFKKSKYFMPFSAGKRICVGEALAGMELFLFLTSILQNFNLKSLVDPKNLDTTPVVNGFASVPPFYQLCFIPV

`CC(C)c1cc(C(=O)NC[C@H]2CCN(CCc3ccc(OC(F)(F)F)c(F)c3)C2)on1`: the inhibition amounted to 36.4% in [1] and 59.7% in [2]. This compound also displayed an IC50 in series [3] of 160 nM. Further, the remaining at 0.5 h in series [4] was 35.2%.

Regarding `CC(C)c1cc(C(=O)NC[C@H]2CCN(CCc3ccc(C(F)(F)F)cc3)C2)on1`, the inhibition in [1] is 48.7%; in series [2], 63.2%. In addition, the remaining at 0.5 h in series [4] amounted to 34.2%.

As to `COC(=O)C1=C(C)NC(C)=C(C(=O)NC[C@H]2CCN(CCc3ccc(OC(F)(F)F)c(F)c3)C2)C1c1cccc([N+](=O)[O-])c1` (stereo not given in full), the inhibition in series [1] came to 26.4%; in [2], 33.7%. The compound also gave a 50% inhibitory concentration (IC50) in [3] of 1470 nM. The remaining at 0.5 h in series [4] is 0.25%.

For the compound `COC(=O)C1=C(C)NC(C)=C(C(=O)NC[C@H]2CCNC2)C1c1cccc([N+](=O)[O-])c1` (stereo not given in full), the figures for the inhibition in [1] and in series [2] were 5.49% and 21.8%, respectively.

As to `COC(=O)C1=C(C)NC(C)=C(C(=O)NC[C@H]2CCN(CCc3ccc(Cl)c(F)c3)C2)C1c1cccc([N+](=O)[O-])c1` (stereo not given in full), the inhibition in series [1] stood at 80.3%; in series [2], 69.7%. Moreover, the IC50 in [3] was found to be 330 nM. Moreover, in series [4], the remaining at 0.5 h came out at 2.13%.

For the compound `CC(C)c1cc(C(=O)NC[C@H]2CCN(CCC(C)(C)C)C2)on1`, the inhibition in series [1] is 23.3%; in [2], 21.1%.

Take `CC(C)c1cc(C(=O)NC[C@H]2CCN(CCc3ccc(Cl)c(Cl)c3)C2)on1`: the inhibition was 71.7% in series [1] and 69.7% in [2]. The same compound had an IC50 in [3] of 1530 nM. Besides, the remaining at 0.5 h in [4] came out at 51.7%.

As for `CC(C)c1cc(C(=O)NC[C@H]2CCN(C(=O)CC(C)(C)C)C2)on1`, the inhibition in [1] was determined as 23.1%; in series [2] it was 17.8%.

`NCC1(CC(=O)O)CCCCC1`: the Activity entry in the series with Rattus norvegicus [5] and in the series with Rattus norvegicus [6] was “Active” in each case.

As to `COC(=O)C1=C(C)NC(C)=C(C(=O)NC[C@H]2CCN(CCc3ccc(C(F)(F)F)cc3)C2)C1c1cccc([N+](=O)[O-])c1` (stereo not given in full), the inhibition in [1] is 43.5%; in series [2], 34.1%. The half-inhibitory concentration (IC50) in series [3] is 1480 nM. In addition, the remaining at 0.5 h in series [4] turned out to be 2.01%.

For the compound `CC(C)c1cc(C(=O)NC[C@H]2CCN(Cc3cccnc3)C2)on1`, the inhibition in series [1] worked out at 2.4%; in [2], 11.6%.

For the compound `Cc1ccc(CCN2CC[C@H](CNC(=O)c3cc(C(C)C)no3)C2)cc1C(F)(F)F`, the activity at 10 µM on CYP2C9 was 53.9%; on CYP2C19, 50.4%; at CYP2D6, 31.2%; at CYP3A4, 33%; on CYP1A2, 88.1%. Moreover, the inhibition was 46.8% in [1] and 51.9% in series [2]. In addition, the Activity result in the series on Rattus norvegicus [5] and in the series with Rattus norvegicus [8] was “Active” in each case. Further, the Activity with Rattus norvegicus [6] was determined as 80%. Moreover, the IC50 in [7] came out at 5130 nM; in series [3], 1900 nM; in [9], 7610 nM. Also, the remaining at 0.5 h in [4] amounted to 39.8%.

Take `CC(C)c1cc(C(=O)NC[C@H]2CCNC2)on1`: the inhibition in series [1] worked out at 11.4%; in series [2] it was 8.36%.

With `COC(=O)C1=C(C)NC(C)=C(C(=O)NC[C@H]2CCN(CCc3ccc(C)c(C(F)(F)F)c3)C2)C1c1cccc([N+](=O)[O-])c1` (stereo not given in full), the figures for the inhibition in series [1] and in series [2] were 78.3% and 65.2%, respectively. Besides, the midpoint of inhibition in series [3], the IC50, lay at 2700 nM. The remaining at 0.5 h in series [4] came to 0.63%.

Take `CC(C)c1cc(C(=O)NC[C@H]2CCN(CCc3ccc(Cl)c(F)c3)C2)on1`: the inhibition amounted to 59.9% in [1] and 50.1% in [2]. Also, the IC50 in series [3] came out at 1520 nM. Also, the remaining at 0.5 h in series [4] amounted to 26.2%.

For the compound `COC(=O)C1=C(C)NC(C)=C(C(=O)NC[C@H]2CCN(CCc3ccc(Cl)c(Cl)c3)C2)C1c1cccc([N+](=O)[O-])c1` (stereo not given in full), the inhibition in series [1] is 32.5%; in [2], 31.3%. Moreover, in series [4], the remaining at 0.5 h worked out at 2.87%.
